Data from ChEMBL document CHEMBL4402528, “Multi-target drugs active against leishmaniasis: A paradigm of drug repurposing” (Eur J Med Chem, 2019).
pIC50: −log10 of the molar value. Values after ≈ are worked out from the molar mass of the structure shown.

Key:
[1] = test system: Candida albicans; assay: Antifungal activity against Candida albicans assessed as reduction in viability after 24 hrs by broth microdilution assay; format: functional
[2] = test system: Leishmania amazonensis; assay: Antileishmanial activity against Leishmania amazonensis promastigotes assessed as reduction in parasite viability after 72 hrs by CCK-8 assay; format: functional, organism-based
[3] = test system: Leishmania amazonensis; assay: Antileishmanial activity against Leishmania amazonensis MHOM/BR/75/Josefa promastigotes assessed as reduction in parasite viability after 72 hrs by Neubauer chamber counting method; format: functional, organism-based
[4] = test system: Leishmania amazonensis; assay: Antileishmanial activity against Leishmania amazonensis MHOM/BR/75/Josefa intracellular amastigotes infected in CF-1 macrophages assessed as reduction in parasite viability after 72 hrs by optical microscopic method; format: functional, organism-based
[5] = test system: Leishmania amazonensis; assay: Antileishmanial activity against Leishmania amazonensis MHOM/BR/77/LTB 0016 promastigotes assessed as reduction in parasite viability after 72 hrs by MTT assay; format: functional, organism-based; settings: MHOM/BR/77/LTB 0016, 72 h
[6] = test system: Leishmania amazonensis; assay: Antileishmanial activity against Leishmania amazonensis MHOM/BR/77/LTB 0016 intracellular amastigotes infected in BALB/c Peritoneal macrophages assessed as reduction in parasite viability after 72 hrs by light microscopic method; format: functional, organism-based; settings: MHOM/BR/77/LTB 0016, 72 h
[7] = test system: Leishmania donovani; assay: Antileishmanial activity against Leishmania donovani LCR-133 promastigotes assessed as reduction in RNA synthesis at 95 uM preincubated for 30 mins followed by addition of 5-[3H]-uridine and measured up to 145 mins by liquid scintillation counting method relative o control; format: functional; parameters: scale not given: the % may be the effect or the level left
[8] = test system: Leishmania mexicana; assay: Antileishmanial activity against Leishmania mexicana intracellular amastigotes infected in J774 macrophages assessed as reduction in parasite viability after 72 hrs; format: functional, organism-based; settings: J774, 72 h

C[C@@H]1C[C@@H](C)/C=C/C=C/C=C/C=C/C=C/C=C/C=C/[C@H](O[C@@H]2O[C@H](C)[C@@H](O)[C@H](N)[C@@H]2O)C[C@@H]2O[C@](O)(C[C@@H](O)C[C@@H](O)[C@H](O)CC[C@@H](O)C[C@@H](O)CC(=O)O[C@H]1C)C[C@H](O)[C@H]2C(=O)O
MIC [1]: 4 µM (≈ 3.63 µg/mL)

C[C@@H]1[C@H](O)[C@@H](C)/C=C/C=C/C=C/C=C/C=C/C=C/C=C/[C@H](O[C@@H]2O[C@H](C)[C@@H](O)[C@H](N)[C@@H]2O)C[C@@H]2O[C@](O)(C[C@@H](O)C[C@@H](O)[C@H](O)CC[C@@H](O)C[C@@H](O)CC(=O)O[C@H]1C)C[C@H](O)[C@H]2C(=O)O [AMPHOTERICIN B]
MIC [1]: 0.25 µM (≈ 0.231 µg/mL)

OC(Cn1cncn1)(Cn1cncn1)c1ccc(F)cc1F [FLUCONAZOLE]
pIC50 [2]: 5.00

CCC(C)n1ncn(-c2ccc(N3CCN(c4ccc(OCC5COC(Cn6cncn6)(c6ccc(Cl)cc6Cl)O5)cc4)CC3)cc2)c1=O (centres undefined) [ITRACONAZOLE]
pIC50 [3]: 6.36 | pIC50 [4]: 7.10

CC(=O)N1CCN(c2ccc(OCC3COC(Cn4ccnc4)(c4ccc(Cl)cc4Cl)O3)cc2)CC1 (centres undefined) [KETOCONAZOLE]
pIC50 [5]: 5.57 | pIC50 [6]: 5.17

CCCCCCCCCCCCCCCCOP(=O)([O-])OCC[N+](C)(C)C [MILTEFOSINE]
Activity [7]: 96.32%

CC(C)=CCC/C(C)=C/CNCCNC1C2CC3CC(C2)CC1C3 (centres undefined) [SQ109]
pIC50 [8]: 7.96
